The target in test [1] is BChE (EC 3.1.1.8, equine serum) (Equus caballus, UniProt P81908). In words: biochemical. The class given is biochemical. The settings on record: for IC50: Ellman's method, 5 min pre-incubation at 4 °C, triplicate. (In general: In Ellman's method for cholinesterases, released thiocholine reacts with DTNB.)
In test [2] the test system is BChE. Set-up: method as in PMID 35870364, PMID 35228009. The settings on record: previous research; cited from earlier work.
Test [3] has as its target AChE (EC 3.1.1.7, Electrophorus electricus) (Electrophorus electricus, UniProt O42275). In words: biochemical. The class given is biochemical. The settings on record: for IC50: Ellman's method, 5 min pre-incubation at 4 °C, triplicate.
Test [4] concerns TNFα production. The settings on record: cited from earlier work; for anti-inflammatory activity: previous series.

The structures appear in SMILES notation. Where only a bound is given, the exact number is not on record here.

Chain of BChE (EC 3.1.1.8, equine serum) (P81908 whole entry): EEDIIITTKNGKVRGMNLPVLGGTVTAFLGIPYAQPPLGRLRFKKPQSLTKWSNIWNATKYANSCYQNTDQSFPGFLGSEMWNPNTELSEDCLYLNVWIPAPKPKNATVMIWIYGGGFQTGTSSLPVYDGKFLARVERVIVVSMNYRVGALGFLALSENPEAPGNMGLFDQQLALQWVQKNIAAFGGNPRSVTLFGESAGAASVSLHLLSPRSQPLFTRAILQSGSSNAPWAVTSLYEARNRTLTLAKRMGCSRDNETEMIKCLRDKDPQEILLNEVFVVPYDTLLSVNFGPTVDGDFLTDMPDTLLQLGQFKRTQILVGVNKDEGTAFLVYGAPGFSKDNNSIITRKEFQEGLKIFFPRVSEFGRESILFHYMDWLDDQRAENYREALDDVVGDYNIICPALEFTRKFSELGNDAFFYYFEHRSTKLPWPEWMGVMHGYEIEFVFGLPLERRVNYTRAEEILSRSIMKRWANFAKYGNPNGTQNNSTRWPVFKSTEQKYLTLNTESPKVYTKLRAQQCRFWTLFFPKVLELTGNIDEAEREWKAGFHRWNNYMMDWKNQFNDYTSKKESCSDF
Chain of AChE (EC 3.1.1.7, Electrophorus electricus) (O42275 24-633): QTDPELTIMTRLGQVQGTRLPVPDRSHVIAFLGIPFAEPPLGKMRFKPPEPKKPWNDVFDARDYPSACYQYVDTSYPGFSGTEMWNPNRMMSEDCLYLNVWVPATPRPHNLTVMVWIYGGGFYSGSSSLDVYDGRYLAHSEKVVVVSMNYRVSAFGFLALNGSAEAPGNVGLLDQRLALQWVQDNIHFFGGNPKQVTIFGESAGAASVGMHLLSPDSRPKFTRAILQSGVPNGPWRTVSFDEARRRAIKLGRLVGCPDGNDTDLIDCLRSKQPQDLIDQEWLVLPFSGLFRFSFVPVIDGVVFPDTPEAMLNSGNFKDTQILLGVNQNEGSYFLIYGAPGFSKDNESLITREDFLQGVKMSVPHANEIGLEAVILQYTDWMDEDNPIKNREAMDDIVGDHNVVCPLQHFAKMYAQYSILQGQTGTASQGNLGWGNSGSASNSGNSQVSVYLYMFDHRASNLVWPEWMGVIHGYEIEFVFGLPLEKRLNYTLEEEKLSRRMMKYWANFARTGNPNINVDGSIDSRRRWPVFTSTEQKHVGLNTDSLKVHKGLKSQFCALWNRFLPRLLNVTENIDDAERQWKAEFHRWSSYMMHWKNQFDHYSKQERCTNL

One may read the IC50 as the concentration that inhibits the measured activity by half. Molecule `OCCCCn1nnc2c1-c1ccsc1CC2` [Compound 19, 4-(4,5-dihydro-1H-thieno[3′,2′:3,4]benzo[1,2-d][1,2,3]triazol-1-yl)butan-1-ol] showed an IC50 in test [1] of 74.1 µM. With `COc1ccc2c3c1O[C@H]1C[C@@H](O)C=C[C@@]31CCN(C)C2` [Galantamine, galantamine], the IC50 in test [2] is 7.9 µM. On to `COc1ccc(CCn2nnc3c2-c2ccsc2CC3)cc1` [Compound 16], for which the values for the IC50 in test [3] and in test [1] were 145 µM and 119 µM, respectively. As to `FC(F)(F)c1ccc(Cn2nnc3c2-c2ccsc2CC3)cc1` [Compound 14, 1-(4-(trifluoromethyl)benzyl)-4,5-dihydro-1H-thieno[3′,2′:3,4]benzo[1,2-d][1,2,3]triazole], the figures for the IC50 in test [3] and in test [1] were 118 µM and above 150 µM, respectively. `FC(F)(F)Oc1ccc(Cn2nnc3ccc4sccc4c32)cc1` [Compound 8, 1-(4-(trifluoromethoxy)benzyl)-1H-thieno[3′,2′:3,4]benzo[1,2-d][1,2,3]triazole]: the IC50 came out at 68 µM in test [3] and 214 µM in test [1]. `OCCCCn1nnc2ccc3sccc3c21` [Compound 12, 4-(1H-thieno[3′,2′:3,4]benzo[1,2-d][1,2,3]triazol-1-yl)butan-1-ol]: the IC50 in test [1] was found to be 107 µM. With `C=CCn1nnc2ccc3sccc3c21` [structure C, reference compound], the TNFα production inhibition result in test [4] (LPS-stimulated human PBMCs) is given as “good TNFα production inhibition”. Further, the IC50 in test [2] was 3.8 µM. For the molecule `COc1ccc(Cn2nnc3ccc4sccc4c32)cc1` [Compound 3, 1-(4-methoxybenzyl)-1H-thieno[3′,2′:3,4]benzo[1,2-d][1,2,3]triazole], the values for the IC50 in test [3] and in test [1] were 116 µM and 25.5 µM, respectively.

In test [3], `FC(F)(F)Oc1ccc(Cn2nnc3c2-c2ccsc2CC3)cc1` [Compound 15, 1-(4-(trifluoromethoxy)benzyl)-4,5-dihydro-1H-thieno[3′,2′:3,4]benzo[1,2-d][1,2,3]triazole] had an IC50 of 88.7 µM.

With `c1cc2c(s1)CCc1nnn(CCN3CCOCC3)c1-2` [Compound 17, 4-(2-(4,5-dihydro-1H-thieno[3′,2′:3,4]benzo[1,2-d][1,2,3]triazol-1-yl)ethyl)morpholine], half-maximal inhibition in test [3] (IC50) was put at 45.6 µM.

Molecule `COc1ccc(CCn2nnc3ccc4sccc4c32)cc1` [Compound 9, 1-(4-methoxyphenethyl)-1H-thieno[3′,2′:3,4]benzo[1,2-d][1,2,3]triazole] displayed an IC50 in test [1] of 18.6 µM.

In test [1], `CCOC(=O)CCn1nnc2ccc3sccc3c21` [Compound 6, Ethyl 3-(1H-thieno[3′,2′:3,4]benzo[1,2-d][1,2,3]triazol-1-yl)propanoate] had an IC50 of 39.6 µM. Turning to `Fc1ccc(Cn2nnc3ccc4sccc4c32)cc1` [Compound 4, 1-(4-fluorobenzyl)-1H-thieno[3′,2′:3,4]benzo[1,2-d][1,2,3]triazole], the IC50 worked out at 97 µM in test [3] and 37.5 µM in test [1]. For the molecule `c1csc(Cn2nnc3ccc4sccc4c32)c1` [Compound 5, 1-(thiophen-2-ylmethyl)-1H-thieno[3′,2′:3,4]benzo[1,2-d][1,2,3]triazole], the 50% inhibitory concentration (IC50) in test [3] was 119 µM; in test [1], 23.4 µM. With `CC(C)n1nnc2ccc3ccc(Cl)cc3c21` [Compound 1], in test [4], the anti-inflammatory activity result is given as “ten times weaker anti-inflammatory activity than 2”. Also, the IC50 in test [3] came to 59.9 µM; in test [1], 39.6 µM. As for `COc1ccc(Cn2nnc3ccc4ccc(OC)cc4c32)cc1` [Compound 2], the anti-inflammatory activity result in test [4] is “best anti-inflammatory activity of all the tested compounds”. Besides, the “inhibitory activity toward AChE (in words)” value in test [3] (final concentrations 10–500 μM) was “no inhibitory activity”. Moreover, the “inhibitory activity toward BChE (in words)” value in test [1] (final concentrations 10–500 μM) is “no inhibitory activity”.

`Fc1ccc(Cn2nnc3c2-c2ccsc2CC3)cc1` [Compound 13, 1-(4-fluorobenzyl)-4,5-dihydro-1H-thieno[3′,2′:3,4]benzo[1,2-d][1,2,3]triazole] had a 50% inhibitory concentration (IC50) in test [1] of 58 µM. With `FC(F)(F)c1ccc(Cn2nnc3ccc4sccc4c32)cc1` [Compound 7, 1-(4-(trifluoromethyl)benzyl)-1H-thieno[3′,2′:3,4]benzo[1,2-d][1,2,3]triazole], the results for the IC50 in test [3] and in test [1] were 140 µM and above 150 µM, respectively.

Values taken from paper PMC10059756, “New Thienobenzo/Naphtho-Triazoles as Butyrylcholinesterase Inhibitors: Design, Synthesis and Computational Study” (International Journal of Molecular Sciences, 2023).
